Data from patent US11939305B1, “Ethyl 2-(5-(3-fluorophenyl)-4-phenyl-4H-1,2,4-triazol-3-ylthio)acetate as an antimicrobial compound” (KING FAISAL UNIVERSITY, priority 2023, dated 2024).

What was measured:
Format in all cases: cell-based
Bacillus cereus = test: Agar plate disc-diffusion, antibacterial inhibition zone
Experimental: (§1) The agar plate disc-diffusion method was applied. […] The discs were then placed onto the surface of agar plates (nutrient agar for bacteria and Sabouraud's dextrose agar for fungi) seeded with the test organism. Each plate contained 15 mL of the agar medium, previously seeded with 0.2 mL of the broth culture of each organism pregrown for 18 hours. The plates were incubated at 37° C. for 48 hours, and 72 hours for fungi. The inhibition zones were measured in mm. Discs impregnated with DMSO were used as a control, and its inhibition zone was subtracted from the tested compound actual inhibition zone.

Escherichia coli = test: as above
Experimental: as §1

Pseudomonas aeruginosa = test: as above
Experimental: as §1

Staphylococcus aureus = test: as above
Experimental: as §1

Aspergillus flavus = test: Agar plate disc-diffusion, antifungal inhibition zone
Experimental: as §1

[1] = tested on: Chrysosporium keratinophilum; test: as above
Experimental: as §1

different microbes = test: Antimicrobial screening, overall statement; conditions: against different microbes (bacteria and fungi of Tables 1 and 2)
Experimental: The agar plate disc-diffusion method was applied. Sterilized filter papers (6 mm in diameter) were wetted with 10 μL of a solution of ethyl 2-(5-(3-fluorophenyl)-4-phenyl-4H-1,2,4-triazol-3-ylthio)acetate (III) to be tested, containing 10 mg/mL in DMSO, and the discs were allowed to air dry. The discs were then placed onto the surface of agar plates (nutrient agar for bacteria and Sabouraud's dextrose agar for fungi) seeded with the test organism. Each plate contained 15 mL of the agar medium, previously seeded with 0.2 mL of the broth culture of each organism pregrown for 18 hours. The plates were incubated at 37° C. for 48 hours, and 72 hours for fungi. The inhibition zones were measured in mm. Discs impregnated with DMSO were used as a control, and its inhibition zone was subtracted from the tested compound actual inhibition zone.

[2] = A = concentration of comp. = 10,000 μL
[3] = B = concentration of comp. = 30,000 μL
[4] = C = concentration of comp. = 50,000 μL

SMILES	inhibition zone (Bacillus cereus; [2])	inhibition zone (Bacillus cereus; [3])	inhibition zone (Bacillus cereus; [4])	inhibition zone (Escherichia coli; [2])	inhibition zone (Escherichia coli; [3])	inhibition zone (Escherichia coli; [4])	inhibition zone (Pseudomonas aeruginosa; [2])	inhibition zone (Pseudomonas aeruginosa; [3])	inhibition zone (Pseudomonas aeruginosa; [4])	inhibition zone (Staphylococcus aureus; [2])	inhibition zone (Staphylococcus aureus; [3])	inhibition zone (Staphylococcus aureus; [4])	inhibition zone (Aspergillus flavus; [2])	inhibition zone (Aspergillus flavus; [3])	inhibition zone (Aspergillus flavus; [4])	inhibition zone [1, 2]	inhibition zone [1, 3]	inhibition zone [1, 4]	antimicrobial activity (in words) (different microbes)
CCOC(=O)CSc1nnc(-c2cccc(F)c2)n1-c1ccccc1 [III, ethyl 2-(5-(3-fluorophenyl)-4-phenyl-4H-1,2,4-triazol-3-ylthio)acetate]	24 mm	27 mm	39 mm	26 mm	34 mm	50 mm	25 mm	26 mm	44 mm	18 mm	21 mm	30 mm	20 mm	23 mm	29 mm	25 mm	29 mm	47 mm	excellent antimicrobials activities
O=C(O)c1cn(C2CC2)c2cc(N3CCNCC3)c(F)cc2c1=O [Cip., ciprofloxacin, reference compound]	29 mm	30 mm	42 mm	30 mm	39 mm	60 mm	29 mm	30 mm	53 mm	43 mm	44 mm	53 mm	29 mm	30 mm	42 mm	29 mm	30 mm	53 mm	–
